Usually pIC50 stands for the negative decadic logarithm of the IC50, by convention in mol/L.

pIC50: −log10 of the molar value.

From patent US20070244190A1, “Neobritannilactone B and acetyl neobritannilactone B” (priority 2006, published 2007) come the findings set out here.

The subject of one experiment is HL-60 cells. Briefly: Cell viability, trypan blue exclusion, 24 h. Format: cell-based. As to conditions: HL-60, 24 h, mean ± SE, n=3, read-out: IC50, growth of human cancer cells. The method, then:
(§1) Cell Culture and Chemicals. The COLO 205 and HT 29 cell lines were isolated from human colon adenocarcinoma (ATCC CCL-222 and HTB-38); human promyelocytic leukemia (HL-60) cells were obtained from American Type Culture Collection (Rockville, Md.). The human AGS gastric carcinoma cell lines (CCRC 60102) were obtained from the Food Industry Research and Development Institute (Hsinchu, Taiwan). Cell lines were grown at 37° C. in 5% CO2 dioxide atmosphere in RPMI for COLO 205, HT-29, and HL-60 cells and DMEM/F12 for AGS cells, all supplemented with 10% heat-inactivated fetal bovine serum (GIBCO BRL, Grand Island, N.Y.) (100 units/mL of penicillin, 100 μg/mL of streptomycin), and 2 mM L-glutamine (GIBCO BRL). Selected compounds were dissolved in dimethyl sulfoxide (DMSO). Propidium iodide was obtained from Sigma Chemical Co. (St. Louis, Mo.).
(§2) Determination of Cell Viability. Human cancer cells were treated either with DMSO (0.01%) or the selected compounds (5-100 μM). Cell viability was determined at 24 h based on trypan blue exclusion assay. The viability percentage was calculated based on the percentage of unstained cells. Suspensions of cells were diluted 1:1 with 0.5% trypan blue solution. Stained and unstained cells were counted in a hemocytometer.

The subject of experiment [1] is AGS cells. Briefly: Cell viability, trypan blue exclusion, 24 h. The experiment is classed as cell-based. As to conditions: mean ± SE, n=3, read-out: IC50, growth of human cancer cells. The method, then: as §1, §2
In another experiment the test system is COLO 205 cells. Briefly: Cell viability, trypan blue exclusion, 24 h. Format: cell-based. As to conditions: COLO 205, 24 h, mean ± SE, n=3, read-out: IC50, growth of human cancer cells. The method, then:
as §1, §2

Another experiment concerns HT-29 cells. Briefly: Cell viability, trypan blue exclusion, 24 h. The experiment is classed as cell-based. The note with it: HT-29, 24 h, mean ± SE, n=3, read-out: IC50, growth of human cancer cells. The procedure: as §1, §2
Experiment [2] deals with poly-(ADP-ribose) polymerase (PARP) in AGS cells. In words: Western blot of PARP cleavage. The experiment is classed as cell-based, human. The note with it: for PARP cleavage (85-kDa fragment): AGS cells treated for 24, FIG. 6A. The method, then: Western Blotting. The nuclear and cytosolic proteins were isolated from AGS cells after treatment with 60 μM for 0, 3, 6, 9, 12, 18, and 24 h. The total proteins were extracted via the addition of 200 μL of gold lysis buffer (50 mM Tris-HCl, pH 7.4; 1 mM NaF; 150 mM NaCl; 1 mM EGTA; 1 mM phenylmethanesulfonyl fluoride; 1% NP-40; and 10 μg/mL leupeptin) to the cell pellets on ice for 30 min, followed by centrifugation at 10,000 g for 30 min at 4° C. The cytosolic fraction (supernatant) proteins were measured by Bio-Rad protein assay (Bio-Rad Laboratories, Munich, Germany). The samples (50 μg of protein) were mixed with 5× sample buffer containing 0.3 M Tris-HCl (pH 6.8), 25% 2-mercaptoethanol, 12% sodium dodecyl sulfate (SDS), 25 mM EDTA, 20% glycerol, and 0.1% bromophenol blue. The mixtures were boiled at 100° C. for 5 min and were subjected to 12% SDS-polyacrylamide minigels at a constant current of 20 mA. Subsequently, electrophoresis was ordinarily carried out on SDS-polyacrylamide gels. For electrophoresis, proteins on the gel were electrotransferred onto an immobile membrane (PVDF; Millipore Corp., Bedford, Mass.) with transfer buffer composed of 25 mM Tris-HCl (pH 8.9), 192 mM glycine, and 20% methanol. The membranes were blocked with blocking solution containing 20 mM Tris-HCl and then immunoblotted with primary antibodies including, anti-Bcl-XL, anti-β-actin (Transduction Laboratory, Lexington, Ky.), anti-PARP (UBI, Inc., Lake Placid, N.Y.), at room temperature for 1 h. Detection was achieved by measuring the chemiluminescence of blotting agent (ECL, Amersham Corp., Arlington Heights, Ill.), after exposure of the filters to KODAK X-OMAT films.
Activation of caspase-3 leads to the cleavage of a number of proteins, one of which is poly-(ADP-ribose) polymerase (PARP). A hallmark of apoptosis is that PARP (116 kDa) is cleaved to produce an 85-kDa fragment. PARP cleavage was examined in cells treated with NAB or ANAB for 24.
Background: A western blot detects proteins with antibodies after separation by electrophoresis.

For experiment [3], the system named is human AGS gastric carcinoma cell lines. Briefly: Cell survival assay (Example 3), trypan blue exclusion. Format: cell-based. As to conditions: 24 h treatment, Example 3, FIG. 2, read-out: IC50, cell viability. The procedure: Cell Survival Assay. The human AGS gastric carcinoma cell lines (CCRC 60102) were maintained as described in Section 8.2 above. For assays, cells (5×10^4) were plated in 35-mm Petri dishes. The next day, the medium was changed and NAB and ANAB were added. Control cells were treated with DMSO to a final concentration of 0.05% (v/v). At the end of incubation, cells were harvested for cell count using a hemocytometer.
To test the effects of NAB and ANAB on cell viability, human gastric carcinoma cells were treated with different concentrations of NAB and ANAB. After 24 h treatment, the number of live cells was determined by trypan blue exclusion assay. FIG. 2. Both compounds were potent inhibitors of cell viability.

Experiment [4] concerns AGS cells. In words: Sub-G1 flow cytometry (Example 3). Format: cell-based, human. The note with it: 24 h, FIG. 3. The procedure: Flow Cytometry. AGS cells (2×10^5) were cultured in 60-mm Petri dishes and incubated for 24 h. The cells were then harvested, washed with PBS, resuspended in 200 μL of PBS, and fixed in 800 μL of iced 100% ethanol at −20° C. After being left to stand overnight, the cell pellets were collected by centrifugation, resuspended in 1 mL of hypotonic buffer (0.5% Triton X-100 in PBS and 0.5 μg/mL RNase), and incubated at 37° C. for 30 min. Next, 1 mL of propidium iodide solution (50 μg/mL) was added, and the mixture was allowed to stand on ice for 30 min. Fluorescence emitted from the propidium iodide-DNA complex was quantitated after excitation of the fluorescent dye by FACScan cytometry (Becton Dickinson, San Jose, Calif.).
The cytotoxic effects of NAB and ANAB in AGS cells were analyzed to assess their consistency with the specific changes that characterize apoptosis, such as DNA fragmentation. To investigate the induction of a sub-G1 cell population, the DNA content of AGS cells treated with various concentrations of NAB and ANAB was analyzed by flow cytometry. Cells were treated with NAB and ANAB, and stained with propidum iodide.

Regarding `C=C1C(=O)OC2C=C(C)CCC=C(C)CC(O)C12` (stereo not drawn) [Compound 3, 4-hydroxy-3α,4,5,8,9,11α-hexahydro-6,10-dimethyl-3-methylene-cyclodeca[b]furan-2(3H)-one], the pIC50 with HL-60 cells was 4.56; with AGS cells [1], 4.67; with COLO 205 cells it was 4.84; with HT-29 cells, 4.25; in experiment [3] it was 5.12. For the same compound, the “PARP cleavage (85-kDa fragment)” value in experiment [2] is reported as “PARP proteolytic fragment was found”. The “percentage of apoptotic AGS cells” value is on record as 14% in the experiment on AGS cells [4] (5 μM), 27% in the experiment on AGS cells [4] (10 μM), 63% with AGS cells [4] (15 μM) and 86% in the experiment on AGS cells [4] (25 μM).
`C=C1C(=O)O[C@H]2/C=C(\C)CC/C=C(\C)C[C@H](OC(C)=O)[C@@H]12` [Compound 4, acetyl neobritannilactone B]: the pIC50 with HL-60 cells was 4.79; with AGS cells [1], 5.27; in the experiment with COLO 205 cells, 4.83; in the experiment on HT-29 cells, 4.24; in experiment [3], 5.38. Also, in experiment [2] (15 μM, time course, FIG. 6B), the “PARP cleavage over time” value is listed as “time-dependent proteolytic cleavage of PARP”. Moreover, the “PARP cleavage (85-kDa fragment)” value in experiment [2] is “PARP proteolytic fragment was found”. Besides, the “percentage of apoptotic AGS cells” value with AGS cells [4] (5 μM) is 24%; in the experiment on AGS cells [4] (10 μM), 64%; in the experiment on AGS cells [4] (15 μM), 81%; in the experiment on AGS cells [4] (25 μM) it was 92%.
